In patent US20240285637A1, “PHOSPHODIESTERASE INHIBITORS FOR THE MITIGATION OF FRAGILE X SYNDROME SYMPTOMS” (THE ROYAL INSTITUTION FOR THE ADVANCEMENT OF …, priority 2021, published 2024):
“Also recorded” adds a separate entry of the source.

Experiments:
Format in all cases: cell-based, mouse
[1] = tested on: cerebellar stellate cells; experiment: Minimal stimulation protocol, evoked IPSCs before and after HFS (failure rate of GABAergic transmission)
[2] = tested on: blood vessels in the somatosensory cortex; experiment: Acute slice vascular reactivity, somatosensory cortex; set-up: effect on the NMDA response (vasodilation) / vasodilation (direct action on blood vessels): dose or concentration left out as unconfirmed; settings: for vasodilation of pre-constricted blood vessels: bath application of NMDA
[3] = tested on: blood vessels (capillaries) in the molecular layer of the cerebellum; experiment: Acute slice vascular reactivity, cerebellar vermis slices (U46619 constriction, NMDA dilation); set-up: effect on the NMDA response (vasodilation) / vasodilation (direct action on blood vessels): dose or concentration left out as unconfirmed; settings: for vasodilation of pre-constricted blood vessels: NMDA 50 μM, 5 mins, after U46619
[4] = tested on: cerebellar stellate cells; experiment: Cell-attached recordings of action currents (intrinsic plasticity) after HFS of parallel fibers; settings: WT stellate cells, 10 μM APV, 25 minutes after HFS
From the text: Cerebellum slice preparation: Mice (P21-35) were anesthetized with isoflurane and immediately decapitated. A block of cerebellar vermis was rapidly dissected from the mouse head and submerged in an ice-cold cutting solution perfused with carbogen gas (95% O2, 5% CO2). Cutting solution contains (in mM): 235 sucrose, 2.5 KCl, 1.25 NaH2PO4, 28 NaHCO3, 0.5 CaCl2, 7 MgCl2, 28 D-glucose, 1 ascorbic acid, and 3 sodium pyruvate (pH 7.4; 305-315 mOsmol/L). The block of vermis was then fastened to a platform, transferred to the slicing chamber and again submerged in ice-cold cutting solution, bubbled with carbogen throughout the remainder of the procedure. Thin slices of cerebellar vermis (300 μm) were obtained with a vibrating tissue sectioner (Leica VT1200; Leica Instruments, Nussloch, Germany). The slices were transferred to oxygenated artificial cerebrospinal fluid (ACSF) and held at room temperature (21° C.-23° C.) for at least 1 h before recordings were performed. […]
For extracellular stimulations, thin walled borosilicate glass electrodes (OD 1.65 mm, ID 1.15 mm; King Precision Glass Inc, Claremont, CA, USA) were used with a tip resistance of <3 MΩ when filled with ACSF. […] To minimize variability between responses, the stimulating electrode was positioned 50-100 μm away from the recorded cell. […]

[5] = tested on: middle or posterior cerebral arteries; experiment: Vascular reactivity of isolated pressurized cerebral arteries; settings: various concentrations, extraluminal application
Description: Vascular reactivity: Middle or posterior cerebral arteries were isolated from both WT (n=9) and Fmr1-KO (n=4) mice and vessel diameter was measured using video microscopy (Living Systems Instrumental, Burlington, VT) as previously described. Blood vessels were cannulated in a closed sac preparation in 1×KREBS buffer, and gradually pressurized to 60 mmHg. Vasoconstriction was measured in response to extraluminal application of either thromboxane A2 receptor agonist U46619, NMDA, or acetylcholine (ACh) at increasing concentrations (10-9 to 10-3 mol/L, Tocris Bioscience Ellisville, MO, USA). Data is presented as a percentage change from the basal diameter.

[6] = Fmr1 KO stellate cells, 10 μM external MPEP, baseline, n=7
[7] = Fmr1 KO stellate cells, 10 μM external MPEP, post-HFS, n=7

## COc1ccc2c(c1)c(C1=C(c3c[nH]c4ccccc34)C(=O)NC1=O)cn2CCCN(C)C [Gö6983]
[1]; WT mice, kinase (PKC) inhibitor
  change of failure rate from baseline to post-HFS: did not change

## NC1=N[C@H](O)[C@H]2[C@H]3O[C@]4(O)O[C@@H]([C@@H](O)[C@@]2(N1)[C@@H]4O)[C@]3(O)CO [tetrodotoxin]
[2]
  effect on NMDA-induced vasodilation: blocked
[3]
  effect on NMDA-induced vasodilation: completely blocked vasodilation

## CN[C@H](CC(=O)O)C(=O)O [NMDA, N-methyl-D-aspartate]
[2]; Fmr1 KO cortex
  vasodilation of pre-constricted blood vessels: failed to induce vasodilation
[2]; wildtype cortical blood vessels
  vasodilation of pre-constricted blood vessels: robust vasodilation
[3]; Fmr1 KO cerebellar slices
  vasodilation of pre-constricted blood vessels: failed to promote blood vessel dilation; also recorded: failed to induce vasodilation
[3]; WT cerebellar slices
  vasodilation of pre-constricted blood vessels: caused vasodilation; also recorded: robust vasodilation

## Cc1cccc(C#Cc2ccccc2)n1 [MPEP, 2-Methyl-6-(phenylethynyl)-pyridine]
[1]; Fmr1 KO stellate cells, 10 μM MPEP
  onset of iLTD: prevents the onset of iLTD
[1]; [6]
  failure rate of GABAergic transmission (mean): 77.21+/−3.75%
  time latency of synaptic events (mean): 2.78 ± 0.24 ms
[1]; [7]
  failure rate of GABA-evoked events (mean): 79.98+/−4.58%
  time latency of synaptic events (mean): 2.32 ± 0.29 ms
[1]; α3 KO mice, MPEP, data not shown
  change of failure rate after HFS protocol: slightly decreased their failure rate

## N[C@H](CCCP(=O)(O)O)C(=O)O [APV, (2R)-amino-5-phosphonovaleric acid]
[1]; WT mice, in the presence of APV, data not shown
  decrease of failure rate post-HFS: ~5%
[4]
  long-term increase in basal firing rates after HFS of PFs: no long-term increase; also recorded: no increase in action potential firing

## O=C(O)CN(CC(=O)O)c1ccccc1OCCOc1ccccc1N(CC(=O)O)CC(=O)O [BAPTA, 1,2-bis(o-aminophenoxy)ethane-N,N,N′,N′-tetraacetic acid)]
[1]; WT mice, high BAPTA internal solution, data not shown
  change of failure rate post-HFS: did not change their failure rate

## COc1ccc(Cc2nccc3cc(OC)c(OC)cc23)cc1OC [papaverine]
[2]; Fmr1 KO cortex
  vasodilation (direct action on blood vessels): able to induce vasodilation
[3]; Fmr1 KO cerebellum
  vasodilation (direct action on blood vessels): able to induce vasodilation

## CCCCC[C@H](O)/C=C/[C@@H]1[C@@H](C/C=C\CCCC(=O)O)[C@H]2CO[C@@H]1C2 [U46619]
[2]; cortex (FIG. 5O)
  ability to vasoconstrict blood vessels, WT vs Fmr1 KO in all the conditions: similar
[3]; 75 nM
  frequency of blood vessel constriction, Fmr1 KO brain slices compared to WT: much less frequently
[3]; 150 nM
  vasoconstriction, Fmr1 KO brain slices compared to WT: reduced vasoconstriction
[3]; Fmr1 KO mice, [U46619] 75 nM
  blood vessels with no response (no constriction), number: 2
  blood vessels with response (constricted), number: 8
  proportion of blood vessels that constricted: 80%
[3]; Fmr1 KO mice, [U46619] 150 nM
  blood vessels with no response (no constriction), number: 11
  blood vessels with response (constricted), number: 25
  proportion of blood vessels that constricted: 69%
[3]; WT mice, [U46619] 75 nM
  blood vessels with no response (no constriction), number: 3
  blood vessels with response (constricted), number: 10
  proportion of blood vessels that constricted: 77%
[3]; WT mice, [U46619] 150 nM
  blood vessels with no response (no constriction), number: 2
  blood vessels with response (constricted), number: 18
  proportion of blood vessels that constricted: 90%
[3]; cerebellum (FIG. 5N)
  ability to vasoconstrict blood vessels, WT vs Fmr1 KO in all the conditions: similar
[5]
  vasoconstriction of MCA/PCA, Fmr1 KO compared to WT: reduced
